Experimental data taken from BindingDB's records for doi:10.1021/jm1009814 (Paris-Sud University, 2010).

Tests used:
[1] = target: T1, Fructose-bisphosphate aldolase A (Oryctolagus cuniculus, UniProt P00883); assay: Inhibition of rabbit muscle […] class 1 Fba expressed in Escherichia coli
T1 sequence (P00883 whole entry): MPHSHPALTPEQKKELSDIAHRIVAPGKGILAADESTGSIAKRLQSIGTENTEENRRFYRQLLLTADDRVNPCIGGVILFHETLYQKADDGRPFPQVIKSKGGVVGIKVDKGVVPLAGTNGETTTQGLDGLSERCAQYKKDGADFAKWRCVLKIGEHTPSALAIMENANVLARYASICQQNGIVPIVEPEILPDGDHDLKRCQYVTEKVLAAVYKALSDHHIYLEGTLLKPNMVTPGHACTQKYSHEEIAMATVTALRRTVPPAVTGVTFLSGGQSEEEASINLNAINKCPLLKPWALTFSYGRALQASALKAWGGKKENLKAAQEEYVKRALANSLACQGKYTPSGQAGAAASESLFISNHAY

[2] = target: T2, Fructose-bisphosphate aldolase (Helicobacter pylori (strain ATCC 700392 / 26695), UniProt P56109); assay: Inhibition of Helicobacter pylori recombinant zinc dependent class 2 Fba expressed in Escherichia coli JM109
T2 sequence (P56109 whole entry): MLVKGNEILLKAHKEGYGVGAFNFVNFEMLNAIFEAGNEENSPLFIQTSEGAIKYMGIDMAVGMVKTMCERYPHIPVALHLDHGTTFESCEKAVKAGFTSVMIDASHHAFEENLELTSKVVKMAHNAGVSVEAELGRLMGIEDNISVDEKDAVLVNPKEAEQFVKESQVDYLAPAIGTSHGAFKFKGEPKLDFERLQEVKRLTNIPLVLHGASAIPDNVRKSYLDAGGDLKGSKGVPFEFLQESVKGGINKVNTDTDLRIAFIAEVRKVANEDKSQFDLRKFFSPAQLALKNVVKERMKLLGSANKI

[3] = target: T3, Fructose-bisphosphate aldolase (Candida albicans (strain SC5314 / ATCC MYA-2876), UniProt Q9URB4); assay: Inhibition of Candida albicans zinc dependent class 2 Fba
T3 sequence (Q9URB4 whole entry): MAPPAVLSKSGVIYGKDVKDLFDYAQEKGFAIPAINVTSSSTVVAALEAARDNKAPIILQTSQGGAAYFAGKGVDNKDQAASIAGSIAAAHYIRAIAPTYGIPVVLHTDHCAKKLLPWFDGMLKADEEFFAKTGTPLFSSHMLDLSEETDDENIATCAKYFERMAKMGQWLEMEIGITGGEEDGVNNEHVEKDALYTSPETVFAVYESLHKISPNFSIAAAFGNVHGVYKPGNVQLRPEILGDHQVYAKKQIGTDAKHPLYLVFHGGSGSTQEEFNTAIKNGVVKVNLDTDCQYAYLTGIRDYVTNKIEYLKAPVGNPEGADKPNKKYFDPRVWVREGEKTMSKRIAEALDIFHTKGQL

SMILES	Ki [1]	Ki [2]	Ki [3]
O=C([C@H](O)COP(=O)(O)O)[C@H](O)C(O)COP(=O)(O)O (stereo partly drawn) [1,6-di-O-phosphono-D-fructose]	15 µM	17 µM	85 µM
CCCCCC(=O)OCCCCN(O)C(=O)COP(=O)(O)O [4-(N-hydroxy-2-(phosphonooxy)acetamido)butyl hexanoate]	850 µM		
